The record followed here is patent US20250289793A1, “MACROCYCLIC INHIBITORS OF ATP CITRATE LYASE” (Esperion Therapeutics, Inc., priority 2022, published 2025).

The target in experiment [1] is T1, ACLY (Homo sapiens (Human), UniProt P53396). As to the kind of experiment: Human ACLY (hACLY) RF/MS activity assay. Type of experiment: biochemical. The following applies: 1 nM hACLY; 30 min pre-incubation; 15 μM Coenzyme A, 50 μM ATP, 50 μM citrate; CoA to Acetyl-CoA by RF/MS; read-out: RFMS IC50 GMean. The procedure:
Compounds of the disclosure were evaluated for their efficacy in inhibiting hACLY using rapid fire mass spectrometry (RF/MS).
The final reaction volume for each compound was 20 μl and consisted of buffer (50 mM Hepes pH 8.0, 10 mM MgCl2, 0.003% BSA, 0.01% Brij35, 50 mM NaCl, 4 mM DTT) and 1 nM hACLY, EV12992, PP6692) using Greiner, 384 well small volume, deep well plates (Cat #784201). A two-fold dilution series with a top concentration of 10 μM was used to record a concentration response curve. Both the substrate (CoA) and product (Acetyl-CoA) were quantified, and given a ratio. […] The final DMSO-concentration was 1% (v/v). Compounds were pre-incubated for 30 min with the buffered enzyme solution at RT (20° C.), and substrate solution was added (final concentrations: 15 μM Coenzyme A, 50 μM ATP and 50 μM citrate) to initiate the enzyme reaction. The enzyme reaction was incubated for additional 30 min at RT. The reaction was quenched upon addition of 40 μl of 5% Formic acid in H2O and centrifuged (4350 rpm at 20° C. for 10 min).
Product formation was quantified using a RF/MS-based method based on mass change of CoA (substrate) to Acetyl-CoA (product).

The target in experiment [2] is T1, ACLY. As to the kind of experiment: InCell Pulse assay (permeate HEK293 cells, bind to and stabilize ACLY). Type of experiment: cell-based. The conditions noted are these: HEK293 cells transfected with pICP-ACLY(FL)-ePL; 1 hour at 37° C., 55° C. heat pulse 10 minutes; read-out: InCell Pulse IC50 GMean. The procedure:
HEK293 cells transfected for 24 hours with pICP-ACLY(FL)-ePL (3 μg DNA per T25 flask) using FuGene HD (Promega Corp.) were harvested and cryopreserved. On the day of the assay, the frozen transfected cells were thawed at 37° C., and the storage medium (DMEM with 2 mM L-Glutamine, 10% FBS and a final concentration of DMSO 10%) was exchanged with assay medium (OptiMEM; Gibco™, ThermoFischer Scientific). Compounds were 3-fold serially diluted in DMSO over 11-point concentration range. 100 nL of the corresponding dilutions were spotted into the assay plate (Greiner AG; 384 Well, PP, Small Volume, Deep Well, Natural, cat. no. 784201) followed by the addition of 20 μL of cell suspension adjusted with assay medium to 7.5E4 cells/mL. Subsequently, the plates were sealed and incubated for 1 hour at 37° C. Afterwards, the plates were fixed upside down in a rack and incubated in a 55° C. water bath for 10 minutes. Following this heat pulse step, plates were allowed to reach room temperature for 10 minutes and centrifuged for a few seconds at 1000 rpm and room temperature. 25 μL EA detection solution (working solution: 0.0167× InCell EA Reagent, 0.15× InCell Dilution Buffer, 0.167× InCell Lysis Buffer; 0.667× InCell Substrate Reagent; InCell Hunter Detection kit; Eurofins DiscoverX; cat. no. 96-0079) were added to each well. Afterwards, 42 μL were transferred from the assay plate to the detection plate (Corning Inc., 384-well Low Flange Black Flat Bottom Polystyrene NBS Microplate, cat. no. 3575), followed by an incubation for 1 hour at room temperature, a centrifugation step for 1 minute at 1000 rpm and the detection of the luminescence signal using an EnVision microplate reader (Perkin Elmer Inc.). Concentration-response curve-fitting and IC50 determination was performed using Evotec's in-house evaluation software APlus with a four-parameter non-linear regression fit model. Data was normalized to 0.5% (final concentration) DMSO as low/negative control and 1 μM (final concentration) NDI-094311 as high/positive control.

T1 sequence (P53396 whole entry): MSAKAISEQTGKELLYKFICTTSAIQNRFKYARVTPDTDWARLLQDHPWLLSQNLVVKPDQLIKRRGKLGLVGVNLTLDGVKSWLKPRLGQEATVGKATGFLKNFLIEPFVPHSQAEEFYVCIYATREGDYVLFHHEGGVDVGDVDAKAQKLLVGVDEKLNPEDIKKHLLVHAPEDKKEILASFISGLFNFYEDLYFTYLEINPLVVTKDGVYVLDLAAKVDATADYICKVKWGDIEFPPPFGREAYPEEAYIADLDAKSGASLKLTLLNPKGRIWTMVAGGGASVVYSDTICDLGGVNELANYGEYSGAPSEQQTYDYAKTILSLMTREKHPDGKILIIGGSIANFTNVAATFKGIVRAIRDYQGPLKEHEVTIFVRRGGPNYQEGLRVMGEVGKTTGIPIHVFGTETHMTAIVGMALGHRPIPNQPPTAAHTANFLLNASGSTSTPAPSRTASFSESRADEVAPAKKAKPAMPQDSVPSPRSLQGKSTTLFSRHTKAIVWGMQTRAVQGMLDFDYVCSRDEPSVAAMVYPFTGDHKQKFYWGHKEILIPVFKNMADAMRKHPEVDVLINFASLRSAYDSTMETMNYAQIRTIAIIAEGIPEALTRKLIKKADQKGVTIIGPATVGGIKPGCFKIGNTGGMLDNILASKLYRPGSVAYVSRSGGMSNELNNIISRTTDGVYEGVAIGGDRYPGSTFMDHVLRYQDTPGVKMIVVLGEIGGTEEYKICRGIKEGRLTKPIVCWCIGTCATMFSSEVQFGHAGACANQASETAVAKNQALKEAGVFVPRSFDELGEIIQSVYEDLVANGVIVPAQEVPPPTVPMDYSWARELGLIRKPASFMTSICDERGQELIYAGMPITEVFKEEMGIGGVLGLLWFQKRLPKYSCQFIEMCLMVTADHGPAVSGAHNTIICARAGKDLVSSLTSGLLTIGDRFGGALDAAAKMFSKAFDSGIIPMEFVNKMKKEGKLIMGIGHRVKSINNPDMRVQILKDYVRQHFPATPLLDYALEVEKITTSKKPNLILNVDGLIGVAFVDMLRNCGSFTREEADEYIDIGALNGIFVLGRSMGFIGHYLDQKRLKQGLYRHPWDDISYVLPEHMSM

`O=S1(=O)Nc2cc(c(F)cc2F)-c2ccccc2OCCOCc2cc(Cl)c(O)c1c2` [Compound 67, 15-chloro-21,23-difluoro-18,18-dioxo-8,11-dioxa-18λ6-thia-19-azatetracyclo[18.3.1.113,17.02,7]pentacosa-1(23),2(7),3,5,13,15,17(25),20(24),21-nonaen-16-ol]: the IC50 (usually the concentration that inhibits the measured activity by half) at ACLY [1] was less than 20 nM; at ACLY [2], 300 to 1000 nM.

As for `O=C1OCCOc2ccccc2-c2ccc(F)c(c2F)NS(=O)(=O)c2cc1cc(Cl)c2O` [Compound 51, 15-chloro-21,24-difluoro-16-hydroxy-18,18-dioxo-8,11-dioxa-18λ6-thia-19-azatetracyclo[18.3.1.113,17.02,7]pentacosa-1(23),2(7),3,5,13(25),14,16,20(24),21-nonaen-12-one], the IC50 on ACLY [1] was 100 to 10000 nM; on ACLY [2], not below 50000 nM.

As to `CC1CCOC(=O)c2cc(Cl)c(O)c(c2)S(=O)(=O)Nc2cc(c(F)cc2F)-c2ccccc21` (single isomer, unassigned) [Compound 44, 15-chloro-21,23-difluoro-16-hydroxy-8-methyl-18,18-dioxo-11-oxa-18λ6-thia-19-azatetracyclo[18.3.1.113,17.02,7]pentacosa-1(23),2(7),3,5,13,15,17(25),20(24),21-nonaen-12-one], the IC50 at ACLY [1] was 100 to 10000 nM; at ACLY [2], 1000 to 50000 nM.

As for `COc1cc(F)c2cc1-c1ccccc1OCCOC(=O)c1cc(Cl)c(O)c(c1)S(=O)(=O)N2` [Compound 47, 15-chloro-21-fluoro-16-hydroxy-23-methoxy-18,18-dioxo-8,11-dioxa-18λ6-thia-19-azatetracyclo[18.3.1.113,17.02,7]pentacosa-1(23),2(7),3,5,13(25),14,16,20(24),21-nonaen-12-one], the concentration for half-maximal inhibition (IC50) on ACLY [1] was 20 to 100 nM; on ACLY [2], less than 300 nM.

For `O=C1NCCc2ccccc2-c2cc(c(F)cc2F)NS(=O)(=O)c2cc1cc(Cl)c2O` [Compound 30, 14-chloro-20,22-difluoro-15-hydroxy-17lambda6-thia-10,18-diazatetracyclo[17.3.1.1^12,16.0^2,7]tetracosa-1(23),2,4,6,12,14,16(24),19,21-nonaene-11,17,17-trione], the results for the half-maximal inhibitory concentration (IC50) at ACLY [1] and at ACLY [2] were 20 to 100 nM and 1000 to 50000 nM, respectively.

In the case of `O=C1Cc2cc(Cl)c(O)c(c2)S(=O)(=O)Nc2cc(c(F)cc2F)-c2ccccc2CO1` [Compound 68, 14-chloro-20,22-difluoro-15-hydroxy-17,17-dioxo-9-oxa-17λ6-thia-18-azatetracyclo[17.3.1.112,16.02,7]tetracosa-1(22),2(7),3,5,12(24),13,15,19(23),20-nonaen-10-one], the results for the IC50 at ACLY [1] and on ACLY [2] were less than 20 nM and less than 300 nM, respectively.

As for `O=C1OCCOc2cc3cn[nH]c3cc2-c2cc(c(F)cc2F)NS(=O)(=O)c2cc1cc(Cl)c2O` [Compound 53, 18-chloro-24,26-difluoro-19-hydroxy-21,21-dioxo-11,14-dioxa-21λ6-thia-5,6,22-triazapentacyclo[21.3.1.116,20.02,10.04,8]octacosa-1(27),2(10),3,6,8,16(28),17,19,23,25-decaen-15-one], the half-maximal inhibitory concentration (IC50) is 100 to 10000 nM at ACLY [1] and not below 50000 nM on ACLY [2].

For `O=C1OCc2cccc(c2)Oc2cc(c(F)cc2F)NS(=O)(=O)c2cc1cc(Cl)c2O` [Compound 34, 12-chloro-4,6-difluoro-11-hydroxy-9,9-dioxo-2,16-dioxa-9λ6-thia-8-azatetracyclo[16.3.1.13,7.110,14]tetracosa-1(22),3,5,7(24),10(23),11,13,18,20-nonaen-15-one], the 50% inhibitory concentration (IC50) on ACLY [1] is 100 to 10000 nM; on ACLY [2], not below 50000 nM.

As for `O=S1(=O)Nc2cc(ccc2F)-c2ccccc2CCOCc2cc(Cl)c(O)c1c2` [Compound 69, 14-chloro-20-fluoro-17,17-dioxo-10-oxa-17λ6-thia-18-azatetracyclo[17.3.1.112,16.02,7]tetracosa-1(23),2,4,6,12,14,16(24),19,21-nonaen-15-ol], the half-inhibitory concentration (IC50) is 100 to 10000 nM at ACLY [1] and less than 300 nM at ACLY [2].

As to `CN1Cc2ccccc2-c2cc(c(F)cc2F)NS(=O)(=O)c2cc(cc(Cl)c2O)C1=O` [Compound 91, 13-chloro-19,21-difluoro-14-hydroxy-9-methyl-16,16-dioxo-16λ6-thia-9,17-diazatetracyclo[16.3.1.111,15.02,7]tricosa-1(22),2,4,6,11(23),12,14,18,20-nonaen-10-one], the values for the IC50 on ACLY [1] and at ACLY [2] were 100 to 10000 nM and not below 50000 nM, respectively.

`O=C1OCCCn2c(cc3ccccc32)-c2cc(c(F)cc2F)NS(=O)(=O)c2cc1cc(Cl)c2O` [Compound 27, 18-chloro-24,26-difluoro-19-hydroxy-14-oxa-21lambda6-thia-10,22-diazapentacyclo[21.3.1.1^16,20.0^2,10.0^4,9]octacosa-1(27),2,4,6,8,16,18,20(28),23,25-decaene-15,21,21-trione]: the IC50 is 20 to 100 nM on ACLY [1] and not below 50000 nM on ACLY [2].

With `O=C1OCCc2ccccc2-c2cc(c(F)cc2F)NS(=O)(=O)c2cc1cc(Cl)c2O` [Compound 21, 14-chloro-20,22-difluoro-15-hydroxy-10-oxa-17lambda6-thia-18-azatetracyclo[17.3.1.1^12,16.0^2,7]tetracosa-1(23),2,4,6,12,14,16(24),19,21-nonaene-11,17,17-trione], the IC50 was less than 20 nM at ACLY [1] and less than 300 nM at ACLY [2].

For the compound `O=C1OCCc2ccccc2-c2cc(F)c(F)c(c2)NS(=O)(=O)c2cc1cc(Cl)c2O` [Compound 80, 14-chloro-20,21-difluoro-15-hydroxy-17,17-dioxo-10-oxa-17λ6-thia-18-azatetracyclo[17.3.1.112,16.02,7]tetracosa-1(23),2,4,6,12,14,16(24),19,21-nonaen-11-one], the half-maximal inhibitory concentration (IC50) at ACLY [1] was less than 20 nM; at ACLY [2], less than 300 nM.

For `O=C1OCCOc2ccc(C3CC3)cc2-c2cc(c(F)cc2F)NS(=O)(=O)c2cc1cc(Cl)c2O` [Compound 31, 15-chloro-4-cyclopropyl-21,23-difluoro-16-hydroxy-8,11-dioxa-18lambda6-thia-19-azatetracyclo[18.3.1.1^13,17.0^2,7]pentacosa-1(23),2,4,6,13(25),14,16,20(24),21-nonaene-12,18,18-trione], the half-maximal inhibitory concentration (IC50) is 100 to 10000 nM at ACLY [1] and 1000 to 50000 nM on ACLY [2].

Take `O=C1NCCOc2ccccc2-c2cc3c(cc2F)CCN3C(=O)c2cc1ccc2O` [Compound 11, 24-fluoro-16-hydroxy-8-oxa-11,19-diazapentacyclo[17.5.2.1^13,17.0^2,7.0^22,26]heptacosa-1(24),2,4,6,13,15,17(27),22,25-nonaene-12,18-dione]: the half-maximal inhibitory concentration (IC50) on ACLY [1] is not below 10000 nM.

Regarding `COc1c(Cl)cc2cc1S(=O)(=O)Nc1cc(ccc1O)-c1ccccc1OCCOC2=O` [Compound 25, 15-chloro-21-hydroxy-16-methoxy-8,11-dioxa-18lambda6-thia-19-azatetracyclo[18.3.1.1^13,17.0^2,7]pentacosa-1(24),2,4,6,13,15,17(25),20,22-nonaene-12,18,18-trione], the IC50 on ACLY [1] was not below 10000 nM.

For the compound `O=C1OCCOc2ccccc2-c2ccc(F)c(c2)NS(=O)(=O)c2cc1ncc2O` [Compound 66, 21-fluoro-16-hydroxy-18,18-dioxo-8,11-dioxa-18λ6-thia-14,19-diazatetracyclo[18.3.1.113,17.02,7]pentacosa-1(24),2,4,6,13,15,17(25),20,22-nonaen-12-one], the IC50 at ACLY [1] fell in the range of 20 to 100 nM.

Take `O=C1OCC2Cc3cccc(c3O2)-c2cc(c(F)cc2F)NS(=O)(=O)c2cc1cc(Cl)c2O` (single isomer, unassigned) [Compound 41, 15-chloro-21,23-difluoro-16-hydroxy-18,18-dioxo-8,11-dioxa-18λ6-thia-19-azapentacyclo[18.3.1.16,9.113,17.02,7]hexacosa-1(23),2(7),3,5,13,15,17(25),20(24),21-nonaen-12-one]: on ACLY [2], the IC50 is less than 300 nM.
